For assay [1], the system named is HIV-Bal. The assay is described as follows: HIV reverse transcription assay (2LTR circles in infected PBMCs). In kind it is cell-based, HIV-1. The settings on record: 72 h post-infection; in comparison with vehicle (DMSO). Here is the method: HIV reverse transcription assay. Compounds described herein inhibit 2LTR circles. Stimulated PBMCs are infected with HIV-Bal (2 ng/mL per 10^6 cells) for 5 h. PBMCs are then treated with compounds at desired concentrations and AZT (control) for 72 h post-infection. The cells are then washed three times with media and genomic DNA is prepared from samples using DNeasy Blood and Tissue Kit (Qiagen). For real time PCR analysis, the following primers are used to amplify 2LTR circles (by-products of reverse transcription): Forward 5′-[…] (SEQ ID NO: 5) and Reverse 5′-[…] (SEQ ID NO: 6). […] All results represent two or three independent experiments each performed in quadruplicates; *=p<0.05, **=p<0.01, ***=p<0.001 in comparison with vehicle ([…]).

In assay [2] the test system is HIV-Bal. Kind of assay: HIV entry (real time RT-PCR of HIV LTR in pre-treated PBMCs). In kind it is cell-based, HIV-1. The settings on record: 10 μM or 25 μM; PBMCs pre-treated 1 h and 4 h. An excerpt: The following primers are used to amplify HIV transcripts: HIV LTR, Forward 5′-[…] (SEQ ID NO: 1) and Reverse 5′-[…] (SEQ ID NO: 2) and GAPDH—Forward 5′-[…] (SEQ ID NO: 3) and Reverse 5′-[…] (SEQ ID NO: 4). GADPH is used as endogenous control.
(In general: Real-time PCR tracks product formation cycle by cycle.)

Assay [3] deals with HIV-Bal. Kind of assay: HIV genomic DNA integration (ALU-PCR in infected PBMCs). In kind it is cell-based, HIV-1. The settings on record: 72 h post-infection; in comparison with vehicle (DMSO). Here is the method:
HIV Genomic DNA Integration. […] Stimulated PBMCs are infected with HIV-Bal (2 ng/mL per 10^6 cells) for 5 h. The PBMCs are then treated with compounds at desired concentrations and AZT (control) for 72 h post-infection. The cells are then washed three times with media. Genomic DNA is prepared from samples using DNeasy Blood and Tissue Kit (Qiagen). ALU-PCR is performed followed by real time PCR to quantify integrated viral genome. The following primers are used to amplify HIV transcripts: HIV LTR, Forward 5′-[…] (SEQ ID NO: 1) and Reverse 5′-[…] (SEQ ID NO: 2) and GAPDH—Forward 5′-[…] (SEQ ID NO: 3) and Reverse 5′-[…] (SEQ ID NO: 4). GADPH is used as endogenous control.

Assay [4] has as its system Bovine Viral Diarrhea Virus strain NADL. The assay is described as follows: Anti-BVDV efficacy, cytopathic (CPE) assay in Bovine Turbinate cells (MTT). In kind it is cell-based. Conditions: cell survival at 10 μM compared to untreated control; TABLE 4(a). As for the experimental part:
Assay for Anti-BVDV efficacy. Bovine Turbinate (BT) cells maintained as monolayers in disposable cell culture labware are used for the antiviral efficacy test. Prior to testing, host cell cultures are seeded onto the 96-well cell culture plates and used approximately 48 hours after seeding. […] The growth medium (GM) and maintenance medium (MM) include Dulbecco's Modified Eagle Media (DMEM) with L-glutamine (ATCC #30-2002), 10% Horse serum and penicillin/streptomycin (10,000 units of penicillin and 10,000 μg of streptomycin per mL, Life Technologies #15140-122 or similar) for a final concentration of 100 units penicillin and 100 μg streptomycin in the medium. Bovine Viral Diarrhea Virus strain NADL from BSLI high-titer virus stock is used. Prior to use, aliquots of the stock virus are removed and thawed from a −70° C. freezer. The BVDV is diluted in a maintenance medium (MM) to obtain 0.1 Multiplicity of Infection (MOI). Cytopathic (CPE) assay. CPE refers to degenerative changes in BT tissue culture induced by BVDV as a consequence of its multiplication. BT cell cultures are washed with PBS, and 100 μL aliquots of MM are added to the cells and incubated in a CO2 incubator for 2 hours. After incubation, the MM is removed; the cells washed again with PBS and overlaid with 100 μL of the different concentrations of test compounds. The plates are incubated in a CO2 incubator for 48 to 72 hours. […] This assay is a colorimetric assay that measures the activity of enzymes that reduce MTT to the purple color formazan dye. CPE is confirmed using an Inverted Compound Microscope.
On the technique in general: Cytopathic effects are the visible damage that an infection or toxin causes in cultured cells.

In the next assay the test system is JFH-1 HCV. Conditions: viral titer at 5 μM or 15 μM compared to untreated control. An excerpt: In vitro assay for anti-HCV efficacy. HCV studies typically involve infected patients and chimpanzees. However, recently, a robust HCV infection system was developed with cells derived from the Huh-7 human hepatoma cell line. It is based on the unique JFH-1 HCV consensus cDNA derived from an HCV patient. Using reverse genetics, the infectious virus can be rescued from this HCV clone. The recovered viable JFH virus can be passaged serially in Huh-7 cells. For this reason, this system is amenable for evaluating the activity of test compound for their anti-HCV efficacy.
Briefly, 6×10^3 Huh7-1 cells are incubated overnight in each well of collagen-coated BioCoat 96-well plates (BD Biosciences, Bedford, Mass.) in 0.2 ml 10% medium composed of Dulbecco's modified Eagle's medium supplemented with 10% fetal bovine serum. Subsequently, at 2 day intervals, the cultures are replenished with fresh 0.2 ml 10% medium. After the cultures become confluent, they continue to be replenished at 2 day intervals with fresh 0.2 ml 10% medium that also includes 1% dimethyl sulfoxide (DMSO). After 20 days of these replenishments, the Huh7-1 cultures are incubated with fresh 1% medium (same as 10% medium except that the serum level is 1%) containing HCV at a multiplicity of infection (MOI) of 0.05 focus forming units (ffu)/cell. The HCV (JFH-lwt Huh7) stock titer is 1.5×10^5 ffu/mL. The next day (day 1 post-infection) and 2 days later (day 3 post-infection) the media are replenished with fresh 1% medium containing the test compounds dissolved in DMSO. On the 5th day of treatment with the compounds, cell lysates are collected for RNA isolation and Real Time-quantitative Reverse Transcription Polymerase Chain Reaction (RT-qPCR) and culture media are collected for cytotoxicity analysis.
Total RNA is isolated from cells by the guanidine thiocyanate method using standard protocols. One μg RNA is used for cDNA synthesis using TaqMan reverse transcription reagents (Applied Biosystems, Foster City, Calif.) followed by real-time PCR using an Applied Biosystems 7300 real-time thermocycler. Thermal cycling consists of initial denaturation of 10 min at 95° C. followed by 40 cycles of denaturation (15 s at 95° C.) and annealing/extension (1 m at 60° C.). HCV and human glyceraldehyde-3-phosphate dehydrogenase (GAPDH) RNA levels are determined relative to a standard curve of serial dilutions of plasmid containing JFH-1 HCV or GAPDH cDNA. The PCR primers used to detect GAPDH and HCV are: GAPDH (NMX002046) 5′-[…]-3′(SEQ ID NO: 16) (sense) and 5′-[…]-3′(SEQ ID NO: 17) (anti-sense) JFH-1 HCV (AB047639) 5′-[…]-3′(SEQ ID NO: 18) (sense) and 5′-[…]-3′(SEQ ID NO: 19) (anti-sense).

In assay [5] the test system is HIV-Bal. The assay is described as follows: HIV transcription (Rev, Gag and Env transcripts in infected PBMCs). In kind it is cell-based, HIV-1. Conditions: 72 h post-infection; in comparison with vehicle (DMSO). As for the experimental part: HIV transcription. […] Stimulated PBMCs are infected with HIV-Bal (2 ng/mL per 10^6 cells) for 4-6 h. PBMCs are then treated with compounds at desired concentrations and AZT (control) for 72 h post-infection. The cells are then washed three times with media and genomic RNA is prepared from samples using RNEasy MiniKit (Qiagen). Real time RT-PCR is performed to detect mature viral early (Rev) and late transcripts (Gag and Env). The following primers are used to amplify HIV transcripts: Rev, Forward 5′-[…] (SEQ ID NO: 7) and Reverse 5′-[…] (SEQ ID NO: 8); Env, Forward 5′-[…] (SEQ ID NO: 9) and Reverse 5′-[…] (SEQ ID NO: 10); Gag, Forward 5′-[…] (SEQ ID NO: 11) and Reverse 5′-[…] (SEQ ID NO: 12); GAPDH, Forward 5′-[…] (SEQ ID NO: 3) and Reverse 5′-[…] (SEQ ID NO: 4). GADPH is used as endogenous control.

“Also recorded” adds a separate entry of the source.

With `CC#CC(=O)N1CCC(C(=O)Nc2cccc(-c3cc4ccccc4[nH]3)c2)CC1` [Example 57], the “inhibition of HIV reverse transcription (2LTR circles)” value with HIV-Bal [1] is reported as “significantly inhibits HIV reverse transcription”. Also, the “effect on HIV entry” value in the assay with HIV-Bal [2] is recorded as “did not have an effect on HIV entry”. Besides, the “inhibition of HIV viral integration” value with HIV-Bal [3] is on record as “significantly inhibits viral integration at each concentration; also recorded: significantly inhibits HIV viral integration”. The “BVDV Antiviral Activity” value in assay [4] is “+++ (“+++” corresponds to ≧75 cell survival at 10 μM)”. In addition, the “HCV Antiviral Activity” value in the assay on JFH-1 HCV is reported as “++ (“++” corresponds to ≦60% viral titer at 5 μM)”. Also, in the assay on HIV-Bal [5], the “inhibition of HIV transcription (Rev, Gag, Env)” value is reported as “significantly inhibits viral transcription at each concentration; also recorded: significantly inhibits HIV transcription”.
On to `COc1cccc(CN2CCC(C(=O)Nc3ccc(-c4nc5ccccc5[nH]4)cc3)CC2)c1` [Example 58], for which, in assay [4], the “BVDV Antiviral Activity” value is reported as “+++ (“+++” corresponds to ≧75 cell survival at 10 μM)”. Further, the “HCV Antiviral Activity” value with JFH-1 HCV is “++ (“++” corresponds to ≦60% viral titer at 5 μM)”.
The matching figures for `CCc1ccc(CN2CCC(C(=O)Nc3ccc(-c4nc5ccccc5[nH]4)cc3)CC2)o1` [Example 59]: “++ (“++” corresponds to >50 but <75 cell survival at 10 μM)” and “++ (“++” corresponds to ≦60% viral titer at 5 μM)”.
`O=C(Nc1cccc(-c2cc3ccccc3[nH]2)c1)C1CCN(C(=O)c2cncs2)CC1` [Example 60]: the “BVDV Antiviral Activity” value in assay [4] is listed as “+++ (“+++” corresponds to ≧75 cell survival at 10 μM)”. In the assay on JFH-1 HCV, the “HCV Antiviral Activity” value is listed as “+ (“+” corresponds to ≦60% viral titer at 15 μM)”.
As to `Cc1c[nH]c2ncnc(N3CCC(C(=O)Nc4ccc(-c5nc6ccccc6[nH]5)cc4)CC3)c12` [Example 99], the “BVDV Antiviral Activity” value in assay [4] is recorded as “+++ (“+++” corresponds to ≧75 cell survival at 10 μM)”.
For the molecule `Cc1c[nH]c2ncnc(N3CCC(C(=O)Nc4cccc(-c5cc6ccccc6[nH]5)c4)CC3)c12` [Example 100], the “BVDV Antiviral Activity” value in assay [4] is reported as “+++ (“+++” corresponds to ≧75 cell survival at 10 μM)”.
With `Cc1c[nH]c2ncnc(N3CCC(C(=O)Nc4ccc(Oc5ccccc5F)cc4)CC3)c12` [Example 101], the “BVDV Antiviral Activity” value in assay [4] was “++ (“++” corresponds to >50 but <75 cell survival at 10 μM)”.
On the same count and under the same terms, for `Cc1c[nH]c2ncnc(N3CCC(C(=O)Nc4cccc(-c5cccc(F)c5)c4)CC3)c12` [Example 102] the value was “+++ (“+++” corresponds to ≧75 cell survival at 10 μM)”.
Still for that read-out and setting: the entry for `Cc1c[nH]c2ncnc(N3CCC(C(=O)Nc4cccc(Br)c4)CC3)c12` [Example 103] is “+ (“+” corresponds to ≦50 cell survival at 10 μM, and improved survival over untreated control)”.

The values are drawn from US9511070B2, “Heterocyclyl carboxamides for treating viral diseases” (NOVADRUG, LLC, priority 2012, dated 2016).
